Data reported in article PMC4466645 (Oncotarget, 2015).
One block for each compound: values may come before it.

Legend:
[1] = parameters: method as in PMID 23693152; conditions: cited from earlier work
[2] = parameters: method as in PMID 23693152; conditions: cited from earlier work; remark: listed apart in the source
Flt3 = Flt3 (Homo sapiens, UniProt P36888); assay: Microfluidic capillary electrophoresis (MCE) enzymatic assay, Flt3; type: biochemical; conditions: ATP at Km
[3] = test system: AML cell lines expressing Mer or Flt3 internal tandem duplication (ITD); assay: Apoptosis by flow cytometry, AML cell lines expressing Mer or Flt3-ITD (all lines together)
Protocol: (§2) To assess apoptosis, AML cell lines were cultured at 3 × 10^5 cells, and 1 × 10^6 AML patient blasts were co-cultured with 3.5 × 10^5 HS27 cells per condition in 24 well plates, and treated for 72 hours. […] Flow cytometry data were analyzed using Modfit Cell Cycle Analysis software (Verity Software House). In replating assays, cells were similarly plated and treated, then harvested cells were washed twice, and 1.5 × 10^4 viable cells/ml were cultured in cRPMI for six days. Six days after replating, viable myeloblast count was determined by trypan blue exclusion using a Cedex XS Analyzer (Roche).

Mer = Mer (Homo sapiens, UniProt Q12866); assay: Microfluidic capillary electrophoresis (MCE) enzymatic assay, Mer; type: biochemical; conditions: ATP at Km
MV4;11 = assay: Soft agar colony formation assay, MV4;11; type: cell-based; conditions: MV4;11, 50 nM, 14 days, normalized to vehicle
Protocol: (§1) Cell lines were plated at a density of 1000 cells/ml in 0.35% agar over 0.5% agar base layer. […] Colonies were grown for 14 (NOMO-1, MV4;11, MOLM-13) or 21 days (Kasumi-1) prior to staining with 1 mg/ml nitrotetrazolium blue (Sigma-Aldrich). Treatment-containing medium was renewed twice weekly. […] Human mononuclear cells were isolated from umbilical cord blood samples using Ficoll-Paque PLUS (GE Healthcare Life Sciences). […] Cell line and patient sample colonies were counted using a GelCount colony counter (Oxford Optronix) and cord blood colonies were manually counted in a blinded, non-biased manner.

[4] = test system: Erk1/2, Akt and Stat6 phosphorylation; assay: Downstream signaling immunoblot in Mer expressing cell lines; type: cell-based; conditions: two hour treatment
Protocol: Whole cell lysates were prepared and proteins were resolved on Tris-Glycine SDS-PAGE gels (Invitrogen) and transferred onto nitrocellulose membranes. Membranes were blocked in tris-buffered saline with 0.1% Tween-20 containing 5% bovine serum albumin (when probing for Flt3) or 5% milk (when probing for all other molecules). For immunoprecipitation assays, cells were plated and treated as above, then treated with pervanadate for 10 minutes prior to cell lysis to stabilize the phosphorylation status. With the use of pervandate, it was not necessary to stimulate cells with exogenous Mer or Flt3 ligands (other than from fetal bovine serum) to detect phosphorylated Mer and Flt3 proteins. Anti-Mer antibody or anti-Flt3 and rec-Protein G-sepharose beads (Invitrogen) were added and lysates were incubated overnight on a rocking platform. Beads were washed and eluted proteins were resolved as above. Immunoprecipitate membranes were probed with an anti-phospho-Mer or anti-phospho-Flt3 antibody. After visualization, membranes were stripped and reprobed for total protein. The following antibodies were used according to manufacturer recommendations: anti-Mer (ab52968, AbCam); anti-phospho-Mer (Phosphosolutions Inc.); anti-Flt3 (sc-480), anti-Actin (sc-1616), anti-pan-Trk (sc-11), donkey-anti-goat IgG-HRP (sc-2020) (Santa Cruz Biotechnology); anti-phospho-Flt3 (#3461), anti-phospho-Stat6 (Tyr641, #9364), anti-Stat6, (#9362), anti-phospho-Stat5 (Tyr694, #9359), anti-Stat5 (#9358), anti-phospho-AKT (Ser473, #9271L), anti-AKT (#9272), anti-phospho-p44/42-MAPK (ERK1/2, Thr202/Tyr204, #9106), anti-p44/42-MAPK (#9102), anti-PARP (#9542), anti-Caspase-3 (#9665), anti-Tyro-3 (#5585) (Cell Signaling Technology); anti-Axl (AF154, R&D Systems); goat-anti-mouse IgG-HRP, goat-anti-rabbit IgG-HRP (BioRad). Proteins were visualized by horseradish peroxidase chemiluminescence detection (Perkin-Elmer).

TrkA [5] = target: T1, TrkA (Homo sapiens, UniProt P04629); assay: Protein kinase profiling panel (Carna Biosciences), TRKA; conditions: read-out: Percent Inhibition at 46 nM, TRKA
MOLM-13 = assay: Soft agar colony formation assay, MOLM-13; type: cell-based; conditions: MOLM-13, 50 nM, 14 days, normalized to vehicle
Protocol: as §1

[6] = test system: Erk1/2, Akt and Stat5 phosphorylation; assay: Downstream signaling immunoblot in Flt3-ITD cell lines; type: cell-based; conditions: 50 nM, two hour treatment
Protocol: Whole cell lysates were prepared and proteins were resolved on Tris-Glycine SDS-PAGE gels (Invitrogen) and transferred onto nitrocellulose membranes. Membranes were blocked in tris-buffered saline with 0.1% Tween-20 containing 5% bovine serum albumin (when probing for Flt3) or 5% milk (when probing for all other molecules). For immunoprecipitation assays, cells were plated and treated as above, then treated with pervanadate for 10 minutes prior to cell lysis to stabilize the phosphorylation status. With the use of pervandate, it was not necessary to stimulate cells with exogenous Mer or Flt3 ligands (other than from fetal bovine serum) to detect phosphorylated Mer and Flt3 proteins. Anti-Mer antibody or anti-Flt3 and rec-Protein G-sepharose beads (Invitrogen) were added and lysates were incubated overnight on a rocking platform. Beads were washed and eluted proteins were resolved as above. Immunoprecipitate membranes were probed with an anti-phospho-Mer or anti-phospho-Flt3 antibody. After visualization, membranes were stripped and reprobed for total protein. […]

MV4;11 cell line [7] = assay: Replating (rebound growth) assay, MV4;11; conditions: MV4;11, 50 nM for 72 hours then washed, replated at 1.5 × 10^4 viable cells/ml
Protocol: as §2

[8] = test system: primary AML patient samples; assay: Colony formation in methylcellulose, primary AML patient samples; type: cell-based, human
Protocol: as §1

Kasumi-1 cell line [9] = assay: Apoptosis by flow cytometry (YO-PRO-1 iodide / propidium iodide), Kasumi-1; conditions: Kasumi-1, 300 nM, 72 hour; vehicle 30 ± 7%
Protocol: as §2

MV4;11 cell line [10] = assay: Apoptosis by flow cytometry (YO-PRO-1 iodide / propidium iodide), MV4;11; conditions: MV4;11, 300 nM, 72 hours; vehicle 13 ± 3%
Protocol: as §2

AML cell lines = assay: Cell cycle analysis (propidium iodide, ModFit) in AML cell lines; conditions: significant at the 300 nM dose, 72 hours
Protocol: as §2

[11] = test system: normal umbilical cord blood; assay: Colony formation in methylcellulose, normal umbilical cord blood hematopoietic precursors; type: cell-based, human
Protocol: as §1

[12] = test system: AML cell lines expressing Mer or Flt3 internal tandem duplication (ITD); assay: Colony formation, AML cell lines expressing Mer or Flt3-ITD (all lines together); type: cell-based; conditions: compared to treatment with vehicle
Protocol: Cell lines were plated at a density of 1000 cells/ml in 0.35% agar over 0.5% agar base layer. […] Colonies were grown for 14 (NOMO-1, MV4;11, MOLM-13) or 21 days (Kasumi-1) prior to staining with 1 mg/ml nitrotetrazolium blue (Sigma-Aldrich). Treatment-containing medium was renewed twice weekly. […]. Human mononuclear cells were isolated from umbilical cord blood samples using Ficoll-Paque PLUS (GE Healthcare Life Sciences). […]. Cell line and patient sample colonies were counted using a GelCount colony counter (Oxford Optronix) and cord blood colonies were manually counted in a blinded, non-biased manner.

[13] = test system: primary AML patient samples; assay: Apoptosis by flow cytometry in primary AML patient samples co-cultured with HS27 stromal cells; type: cell-based, human
From the text: Cell lines MV4;11, NOMO-1, KG-1a, NB-4, and HEL were obtained from the German Collection of Microorganisms and Cell Culture (DSMZ); Kasumi-1 and U937 were obtained from the American Type Culture Collection (ATCC); MOLM-13 was a gift from Robert Arceci (Johns Hopkins); HS-27 was a gift from Kathrin Bernt (University of Colorado). AML cell lines were maintained in RPMI medium (HyClone) supplemented with 10% FBS and penicillin/streptomycin (cRPMI). Cell line identities were confirmed using short tandem repeat microsatellite loci analysis. HS-27 stromal cells were maintained in DMEM with 10% FBS and penicillin/streptomycin prior to co-culture. De-identified cord blood samples and primary patient myeloblasts apheresed from peripheral blood were obtained from the University of Colorado after written informed consent in accordance with the Declaration of Helsinki. Experiments conformed to regulatory standards as approved by the Colorado Multiple Institutional Review Board. AML patient samples were maintained as previously described, with HS-27 stromal co-culture for apoptosis and cell cycle experiments.
To assess apoptosis, AML cell lines were cultured at 3 × 10^5 cells, and 1 × 10^6 AML patient blasts were co-cultured with 3.5 × 10^5 HS27 cells per condition in 24 well plates, and treated for 72 hours. Harvested cells were washed, resuspended in PBS containing 1 μM YO-PRO®-1 iodide (Invitrogen) and 1.5 μM propidium iodide (PI) (Invitrogen), and incubated on ice for 15–20 minutes. […] Flow cytometry data were analyzed using Modfit Cell Cycle Analysis software (Verity Software House). In replating assays, cells were similarly plated and treated, then harvested cells were washed twice, and 1.5 × 10^4 viable cells/ml were cultured in cRPMI for six days. Six days after replating, viable myeloblast count was determined by trypan blue exclusion using a Cedex XS Analyzer (Roche).

[14] = test system: Mer-expressing cell lines; assay: Apoptosis by flow cytometry, Mer-expressing cell lines; conditions: 72 hours, range over Mer-expressing cell lines
Protocol: as §2

TRKC = TRKC (Homo sapiens, UniProt Q16288); assay: Protein kinase profiling panel (Carna Biosciences), TRKC; conditions: read-out: Percent Inhibition at 46 nM, TRKC
Kasumi-1 cell line [15] = assay: Replating (rebound growth) assay, Kasumi-1; conditions: Kasumi-1, 100 nM for 72 hours then washed, replated at 1.5 × 10^4 viable cells/ml; vehicle 2.0 × 10^5
Protocol: as §2

NOMO-1 = assay: Soft agar colony formation assay, NOMO-1; type: cell-based; conditions: NOMO-1, 100 nM, 14 days, normalized to vehicle
Protocol: as §1

Flt3-ITD cell lines = assay: Apoptosis by flow cytometry, Flt3-ITD cell lines; type: cell-based; conditions: 72 hours, range over Flt3-ITD cell lines
Protocol: To assess apoptosis, AML cell lines were cultured at 3 × 10^5 cells, and 1 × 10^6 AML patient blasts were co-cultured with 3.5 × 10^5 HS27 cells per condition in 24 well plates, and treated for 72 hours. Harvested cells were washed, resuspended in PBS containing 1 μM YO-PRO®-1 iodide (Invitrogen) and 1.5 μM propidium iodide (PI) (Invitrogen), and incubated on ice for 15–20 minutes. […] . Flow cytometry data were analyzed using Modfit Cell Cycle Analysis software (Verity Software House). In replating assays, cells were similarly plated and treated, then harvested cells were washed twice, and 1.5 × 10^4 viable cells/ml were cultured in cRPMI for six days. Six days after replating, viable myeloblast count was determined by trypan blue exclusion using a Cedex XS Analyzer (Roche).

Kasumi-1 = assay: Soft agar colony formation assay, Kasumi-1; type: cell-based; conditions: Kasumi-1, 100 nM, 21 days, normalized to vehicle
Protocol: as §1

TRKB = TRKB (Homo sapiens, UniProt Q16620); assay: Protein kinase profiling panel (Carna Biosciences), TRKB; conditions: read-out: Percent Inhibition at 46 nM, TRKB
[16] = Pharmacokinetics in a murine model; conditions: mouse, in vivo, po
MOLM-13 cell line = assay: Apoptosis by flow cytometry (YO-PRO-1 iodide / propidium iodide), MOLM-13; conditions: MOLM-13, 300 nM, 72 hours; vehicle 8 ± 1%
Protocol: as §2

TrkA [17] = target: T1, TrkA; assay: Microfluidic capillary electrophoresis (MCE) enzymatic assay, TrkA
Protocol: Microfluidic capillary electrophoresis (MCE) enzyme (40 μL, 4 nM Mer) and allowed to incubate for
assay 10 min followed by addition of 32 μL of substrate mix
polypropylene microplate with a final volume of 50μL in reads total, on an EZReader, using upstream voltage =
50mM Hepes, pH 7.4 containing 10mM MgCl2, 1.0 mM −2250V, downstream voltage = −500V and pressure =
DTT, 0.01% Triton X-100, 0.1% bovine serum albumin −1.0 psi (sip time 0.2 sec, buffer 30 sec). The steady-state
(BSA) (MCE Buffer), with 1.0 μM fluorescent substrate velocity was analyzed by linear regression of the peptide
and ATP at Km for each enzyme (Supplemental Table 1). as percent-conversion/min, and a plot of nM compound
70 mM EDTA. Phosphorylated and unphosphorylated using GraphPad Prism (v5.01, GraphPad Software), Y =
Reader software. velocity, X = inhibitor concentration).
Morrison Tight-Binding Method (35).
2.0 nM Mer, and 1.0 μM peptide substrate.

T1 sequence (P04629 33-796): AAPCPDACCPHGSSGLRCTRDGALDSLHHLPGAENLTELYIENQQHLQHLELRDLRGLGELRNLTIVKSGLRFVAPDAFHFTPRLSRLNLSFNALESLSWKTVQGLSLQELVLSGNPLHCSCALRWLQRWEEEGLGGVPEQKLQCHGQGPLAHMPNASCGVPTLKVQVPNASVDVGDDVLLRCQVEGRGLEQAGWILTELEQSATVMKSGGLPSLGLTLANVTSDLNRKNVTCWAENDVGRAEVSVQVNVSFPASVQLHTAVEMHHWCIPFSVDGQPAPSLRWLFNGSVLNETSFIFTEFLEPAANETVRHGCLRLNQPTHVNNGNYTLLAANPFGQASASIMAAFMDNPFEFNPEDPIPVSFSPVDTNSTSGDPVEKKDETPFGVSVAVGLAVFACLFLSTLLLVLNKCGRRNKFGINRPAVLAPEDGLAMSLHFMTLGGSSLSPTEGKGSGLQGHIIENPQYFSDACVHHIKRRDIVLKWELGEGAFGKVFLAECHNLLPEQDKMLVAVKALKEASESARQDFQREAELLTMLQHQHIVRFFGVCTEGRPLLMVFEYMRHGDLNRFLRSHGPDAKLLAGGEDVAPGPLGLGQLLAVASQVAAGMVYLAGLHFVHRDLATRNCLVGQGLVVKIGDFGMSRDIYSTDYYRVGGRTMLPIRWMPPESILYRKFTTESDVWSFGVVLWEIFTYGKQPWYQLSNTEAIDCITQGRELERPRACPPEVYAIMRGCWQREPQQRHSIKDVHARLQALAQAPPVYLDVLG
Sequence of TRKB (Q16620 32-822): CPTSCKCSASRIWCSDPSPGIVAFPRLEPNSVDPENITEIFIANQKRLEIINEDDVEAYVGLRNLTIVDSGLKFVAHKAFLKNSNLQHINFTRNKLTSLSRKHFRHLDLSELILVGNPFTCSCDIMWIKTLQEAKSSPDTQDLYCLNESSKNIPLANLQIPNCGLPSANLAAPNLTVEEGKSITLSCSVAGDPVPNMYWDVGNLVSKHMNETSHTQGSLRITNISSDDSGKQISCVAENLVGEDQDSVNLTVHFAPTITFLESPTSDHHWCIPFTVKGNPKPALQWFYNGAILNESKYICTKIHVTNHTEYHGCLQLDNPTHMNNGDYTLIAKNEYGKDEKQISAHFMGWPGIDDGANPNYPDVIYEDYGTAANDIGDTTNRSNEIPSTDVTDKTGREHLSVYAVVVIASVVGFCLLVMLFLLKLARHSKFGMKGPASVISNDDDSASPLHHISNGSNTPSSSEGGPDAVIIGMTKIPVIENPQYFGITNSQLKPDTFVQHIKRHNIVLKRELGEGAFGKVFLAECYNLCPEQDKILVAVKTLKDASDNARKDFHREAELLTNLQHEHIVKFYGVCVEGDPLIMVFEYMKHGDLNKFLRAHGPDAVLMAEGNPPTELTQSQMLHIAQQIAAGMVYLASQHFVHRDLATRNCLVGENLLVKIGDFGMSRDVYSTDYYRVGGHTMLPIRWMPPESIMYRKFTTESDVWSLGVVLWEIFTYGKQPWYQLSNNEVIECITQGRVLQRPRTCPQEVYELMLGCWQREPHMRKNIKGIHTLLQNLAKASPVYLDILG
Sequence of TRKC (Q16288 32-839): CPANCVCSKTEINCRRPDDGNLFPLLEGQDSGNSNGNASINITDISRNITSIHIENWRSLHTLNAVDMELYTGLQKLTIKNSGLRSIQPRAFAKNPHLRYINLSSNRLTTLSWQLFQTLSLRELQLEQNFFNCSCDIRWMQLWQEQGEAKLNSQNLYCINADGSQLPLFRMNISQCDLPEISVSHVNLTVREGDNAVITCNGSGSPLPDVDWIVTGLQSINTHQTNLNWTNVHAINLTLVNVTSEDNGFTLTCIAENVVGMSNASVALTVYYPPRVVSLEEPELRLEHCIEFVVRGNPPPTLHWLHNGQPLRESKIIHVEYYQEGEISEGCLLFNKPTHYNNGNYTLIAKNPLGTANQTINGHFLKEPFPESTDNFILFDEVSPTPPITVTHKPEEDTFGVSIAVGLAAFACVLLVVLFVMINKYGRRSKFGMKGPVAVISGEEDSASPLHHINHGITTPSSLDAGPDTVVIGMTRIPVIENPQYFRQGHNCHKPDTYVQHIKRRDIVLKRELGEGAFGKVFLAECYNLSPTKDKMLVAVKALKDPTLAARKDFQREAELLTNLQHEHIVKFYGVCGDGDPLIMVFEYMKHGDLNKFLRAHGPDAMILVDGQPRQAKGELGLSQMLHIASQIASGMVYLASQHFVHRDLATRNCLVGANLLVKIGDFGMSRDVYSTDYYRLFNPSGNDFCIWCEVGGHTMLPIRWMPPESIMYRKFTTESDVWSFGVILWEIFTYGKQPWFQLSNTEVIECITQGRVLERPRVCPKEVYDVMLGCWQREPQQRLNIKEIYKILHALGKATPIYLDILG
Sequence of Mer (Q12866 21-999): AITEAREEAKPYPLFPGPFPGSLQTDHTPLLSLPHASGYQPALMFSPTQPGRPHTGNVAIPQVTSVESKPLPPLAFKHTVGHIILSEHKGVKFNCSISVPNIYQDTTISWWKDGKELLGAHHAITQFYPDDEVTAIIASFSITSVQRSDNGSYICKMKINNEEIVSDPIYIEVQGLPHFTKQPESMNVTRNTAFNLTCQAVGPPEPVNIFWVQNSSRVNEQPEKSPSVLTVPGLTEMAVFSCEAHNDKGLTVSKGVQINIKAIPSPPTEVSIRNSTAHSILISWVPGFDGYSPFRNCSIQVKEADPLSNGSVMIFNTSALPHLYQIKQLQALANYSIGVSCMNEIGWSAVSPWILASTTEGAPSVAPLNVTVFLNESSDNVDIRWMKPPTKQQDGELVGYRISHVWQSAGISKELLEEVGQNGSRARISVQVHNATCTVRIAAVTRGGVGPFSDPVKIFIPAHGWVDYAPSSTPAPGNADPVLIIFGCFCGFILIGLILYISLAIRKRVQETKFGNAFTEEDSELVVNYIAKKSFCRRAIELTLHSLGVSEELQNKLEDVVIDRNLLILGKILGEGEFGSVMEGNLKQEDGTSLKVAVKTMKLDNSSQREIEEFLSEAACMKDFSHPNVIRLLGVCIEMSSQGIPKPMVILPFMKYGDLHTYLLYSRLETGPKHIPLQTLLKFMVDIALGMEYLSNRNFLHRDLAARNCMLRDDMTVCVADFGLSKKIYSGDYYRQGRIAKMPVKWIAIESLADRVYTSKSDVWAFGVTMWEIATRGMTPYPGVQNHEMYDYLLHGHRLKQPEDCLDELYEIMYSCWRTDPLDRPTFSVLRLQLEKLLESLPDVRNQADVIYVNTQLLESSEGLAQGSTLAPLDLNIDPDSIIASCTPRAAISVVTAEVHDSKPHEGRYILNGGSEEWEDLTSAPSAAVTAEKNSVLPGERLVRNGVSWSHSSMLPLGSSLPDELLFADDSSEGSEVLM
Sequence of Flt3 (P36888 27-993): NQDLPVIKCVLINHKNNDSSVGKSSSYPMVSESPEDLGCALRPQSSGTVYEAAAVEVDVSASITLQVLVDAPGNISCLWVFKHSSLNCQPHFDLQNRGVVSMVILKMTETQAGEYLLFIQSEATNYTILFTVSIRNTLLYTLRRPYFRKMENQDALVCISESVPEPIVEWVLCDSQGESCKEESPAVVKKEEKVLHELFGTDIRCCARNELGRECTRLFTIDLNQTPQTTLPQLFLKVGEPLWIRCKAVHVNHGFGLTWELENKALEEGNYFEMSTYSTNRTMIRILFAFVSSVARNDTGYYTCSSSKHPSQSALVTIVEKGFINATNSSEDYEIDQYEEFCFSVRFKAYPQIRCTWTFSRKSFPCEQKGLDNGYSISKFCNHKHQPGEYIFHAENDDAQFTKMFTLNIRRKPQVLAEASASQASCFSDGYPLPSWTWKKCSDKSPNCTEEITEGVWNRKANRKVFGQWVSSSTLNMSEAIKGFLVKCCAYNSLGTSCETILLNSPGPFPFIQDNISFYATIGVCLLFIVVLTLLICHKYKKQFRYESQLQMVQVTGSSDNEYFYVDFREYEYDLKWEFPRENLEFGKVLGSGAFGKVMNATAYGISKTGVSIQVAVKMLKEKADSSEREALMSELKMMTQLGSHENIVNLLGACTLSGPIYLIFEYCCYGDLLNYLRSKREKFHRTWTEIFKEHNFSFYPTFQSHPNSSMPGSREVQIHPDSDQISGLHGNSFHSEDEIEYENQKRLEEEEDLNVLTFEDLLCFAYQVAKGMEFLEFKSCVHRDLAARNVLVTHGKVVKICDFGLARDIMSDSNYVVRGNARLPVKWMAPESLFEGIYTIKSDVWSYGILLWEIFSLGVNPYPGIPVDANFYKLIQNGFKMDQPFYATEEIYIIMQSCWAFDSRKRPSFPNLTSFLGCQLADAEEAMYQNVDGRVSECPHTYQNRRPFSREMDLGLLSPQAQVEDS

SMILES: CCCCNc1ncc2c(-c3ccc(S(=O)(=O)N4CCOCC4)cc3)nn(C3CCC(O)CC3)c2n1 (stereo not shown) [UNC1062]
In vivo pharmacokinetic properties (in words) [1]: poor in vivo pharmacokinetic properties
Solubility (in words) [2]: low solubility

IC50 (Flt3): 220 nM
IC50 (Mer): 560 nM
SMILES: CCCCN(C)c1ncc2c(-c3ccc(F)cc3)nn(C[C@H]3CC[C@H](N)CC3)c2n1 [UNC1653]
Induction of apoptosis (in words) ([3]; 72 hours, Mer-expressing or Flt3-ITD cell lines): did not induce apoptosis

SMILES: CCCCNc1ncc2c(-c3ccc(S(=O)(=O)N4CCOCC4)cc3)cn([C@H]3CC[C@H](O)CC3)c2n1 [UNC1666]
Reduction in colonies (MV4;11): 61 ± 22%
Erk1/2, Akt and Stat6 phosphorylation ([4]; 50 nM): diminished phosphorylation
Erk1/2, Akt and Stat6 phosphorylation ([4]; 100 nM): moderate decrease
Erk1/2, Akt and Stat6 phosphorylation ([4]; 300 nM): more complete inhibition
inhibition at 0.046 µM (TrkA [5]): 101%
Reduction in colonies (MOLM-13): 93 ± 6%
Erk1/2, Akt and Stat5 phosphorylation [6]: near complete ablation of phosphorylation
Viable cell number at Day 6 after replating (MV4;11 cell line [7]; vehicle 10 × 10^5): 2.0 × 10^5 viable cells/ml
Increase in viable cell number over six days after replating (MV4;11 cell line [7]; vehicle 67-fold): 13 fold
Concentrations at which patient-derived myeloblasts are sensitive in methylcellulose cultures ([8]; as low as): 5 to 50 nM
Colony formation (in words) ([8]; concentrations as low as 50 nM, in all but one sample, 10 days, methylcellulose): near complete abrogation of colony formation
Cells apoptotic or dead (Kasumi-1 cell line [9]): 76 ± 8%
Apoptosis (cells apoptotic or dead) (MV4;11 cell line [10]): 90 ± 1%
Cell cycle effect (in words) (AML cell lines): accumulation of cells in G2M phase
Colony formation of normal cord blood hematopoietic precursors (in words) ([11]; 1 μM, methylcellulose, 14 days): trend towards decreased colony formation
Decrease in colony formation of normal cord blood hematopoietic precursors (in words) ([11]; 10 μM, methylcellulose, 14 days): statistically significant
Colony forming potential of hematopoietic progenitors in normal cord blood cultures (in words) ([11]; doses as high as 1 μM): did not affect the colony forming potential
Colony number of normal cord blood hematopoietic precursors (in words) ([11]; doses up to 500 nM, n = 3, methylcellulose, 14 days): no significant reduction in colony number
Reduction of colony formation [12]: greater than 90%
Anti-proliferative effects in patient samples (in words) ([13]; 50 nM, co-culture with stromal cells): near complete induction of apoptosis and growth inhibition
Induction of apoptosis (in words) ([13]; 72 hours, HS27 stromal co-culture): induce apoptosis in all patient samples
Concentrations at which functional effects (decreased ability to evade apoptosis, decreased colony formation) occurred ([13]; AML patient samples that co-expressed Mer and Flt3): 5 to 100 nM
Induction of apoptosis, % of cells ([14]; 100 nM): 50–67%
Induction of apoptosis, % of cells ([14]; 300 nM): 68–76%
inhibition at 0.046 µM (TRKC): 98%
Viable cell number at Day 6 after replating (Kasumi-1 cell line [15]): 0.3 × 10^5 cells/ml
Reduction in colony formation (NOMO-1): 71 ± 4%
Induction of apoptosis, % of cells ([3]; maximum over cell lines, compared to vehicle): up to 98%
Cells apoptotic or dead (Flt3-ITD cell lines; 50 nM): 54–67%
Cells apoptotic or dead (Flt3-ITD cell lines; 300 nM): 90–98%
Reduction in colony formation (Kasumi-1): 90 ± 6%
inhibition at 0.046 µM (TRKB): 95%
bioavailability [16]: 8%
Apoptosis (cells apoptotic or dead) (MOLM-13 cell line): 98 ± 2%
IC50 (TrkA [17]): 0.57 nM
